Drawing on ChEMBL document CHEMBL1158418, “Privileged structure-guided synthesis of quinazoline derivatives as inhibitors of trypanothione reductase” (Bioorg Med Chem Lett, 2009), this text covers inhibition, Ki and IC50 for eight molecules.

SMILES strings stand for the structures. Activity calls are given as the source filed them. No cut-off for these calls is given here.

T2 sequence (P28593 whole entry): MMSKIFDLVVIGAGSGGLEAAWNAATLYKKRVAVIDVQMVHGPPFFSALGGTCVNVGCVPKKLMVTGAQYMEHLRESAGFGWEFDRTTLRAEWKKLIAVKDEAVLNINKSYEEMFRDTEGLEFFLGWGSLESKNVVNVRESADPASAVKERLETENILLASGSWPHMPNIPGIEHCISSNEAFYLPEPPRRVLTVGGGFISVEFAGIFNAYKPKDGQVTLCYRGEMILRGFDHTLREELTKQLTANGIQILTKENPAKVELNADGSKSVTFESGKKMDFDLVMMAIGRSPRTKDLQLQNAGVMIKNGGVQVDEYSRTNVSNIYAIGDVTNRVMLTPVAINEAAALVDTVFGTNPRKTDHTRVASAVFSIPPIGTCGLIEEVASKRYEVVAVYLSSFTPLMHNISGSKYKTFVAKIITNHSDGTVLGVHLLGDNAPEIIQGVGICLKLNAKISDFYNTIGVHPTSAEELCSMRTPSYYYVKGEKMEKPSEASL

The first assay addresses T1, Glutathione reductase, mitochondrial (Homo sapiens) (UniProt P00390).
T1 sequence (whole entry): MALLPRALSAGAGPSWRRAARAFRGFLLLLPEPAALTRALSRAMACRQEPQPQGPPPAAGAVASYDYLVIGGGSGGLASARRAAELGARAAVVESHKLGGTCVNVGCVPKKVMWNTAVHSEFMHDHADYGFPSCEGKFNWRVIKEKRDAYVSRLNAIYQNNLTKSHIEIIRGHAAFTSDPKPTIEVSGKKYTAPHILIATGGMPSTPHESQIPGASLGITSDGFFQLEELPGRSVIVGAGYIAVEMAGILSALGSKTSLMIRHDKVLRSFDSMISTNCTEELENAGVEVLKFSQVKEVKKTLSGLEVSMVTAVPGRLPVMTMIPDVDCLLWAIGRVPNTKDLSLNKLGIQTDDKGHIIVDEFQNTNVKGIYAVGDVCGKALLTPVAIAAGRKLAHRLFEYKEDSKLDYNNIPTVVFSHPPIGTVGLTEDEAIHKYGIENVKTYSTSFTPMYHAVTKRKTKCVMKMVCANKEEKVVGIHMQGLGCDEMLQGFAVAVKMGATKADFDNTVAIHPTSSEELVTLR
Briefly: Inhibition of human glutathione reductase at 10 uM by spectrophotometry in presence of 100 uM GSSG.
For the molecule `COc1cc2nc(N3CCN(C4=CC(=O)c5ccccc5C4=O)CC3)nc(N)c2cc1OC`, the inhibition (usually the change of the read-out against control, counted positive when it falls) was “inactive”.

A further assay has as its target T2, Trypanothione reductase (Trypanosoma cruzi, UniProt P28593). As to the kind of experiment: Inhibition of Trypanosoma cruzi recombinant trypanothione reductase by spectrophotometry-based mixed inhibition type assay.
As for `COc1cc(C(=N)NC2CCC(CC3CCC(/N=C(\N)c4ccc(OCc5ccccc5)c(OC)c4)CC3)CC2)ccc1OCc1ccccc1` (stereo not drawn), the Ki (as a rule, a measure of affinity in units of concentration, obtained from inhibition or displacement) stood at 16 µM.

In the case of `COc1cc2nc(N3CCN(C4=CC(=O)c5ccccc5C4=O)CC3)nc(N)c2cc1OC`, the Ki worked out at 22 µM.

The target of a further assay is Trypanothione reductase (Trypanosoma cruzi) (UniProt P28593). As to the kind of experiment: Inhibition of Trypanosoma cruzi recombinant trypanothione reductase at 25 uM by spectrophotometry using 50 uM trypanothione disulfide.
Trypanothione reductase (Trypanosoma cruzi), sequence (P28593 whole entry, looked up): as the sequence (P28593 whole entry) above
For the molecule `COc1cc2nc(N3CCN(C4=CC(=O)c5ccccc5C4=O)CC3)nc(N)c2cc1OC`, the inhibition worked out at 53%.

In the next assay the target is T2, Trypanothione reductase. As to the kind of experiment: Inhibition of Trypanosoma cruzi recombinant trypanothione reductase by spectrophotometry-based non competitive inhibition type assay.
Regarding `CN(C)CCOc1cc2nc(N3CCN(C4=CC(=O)c5ccccc5C4=O)CC3)nc(N)c2cc1OCCN(C)C`, the Ki was 11 µM.

As to `COC1=CC(=O)C=C(N2CCN(c3nc(N)c4cc(OC)c(OC)cc4n3)CC2)C1=O`, the Ki is 32 µM.

The next assay concerns Plasmodium falciparum. As to the kind of experiment: Antiplasmodial activity against intraerythrocytic form of Plasmodium falciparum. It is filed as functional, organism-based.
Take `COc1cc2nc(N3CCN(C(=O)[C@@H]4Cc5ccccc5CN4)CC3)nc(N)c2cc1OC`: half-maximal inhibition (IC50) was put at 2.1 µM.

For the molecule `COc1cc2nc(N3CCN(C(=O)[C@H]4Cc5ccccc5CN4)CC3)nc(N)c2cc1OC`, the IC50 – broadly, the concentration that inhibits the measured activity by half – came to 1.24 µM.

Consider `COc1cc2nc(N3CCN(C(=O)Cc4c[nH]c5ccccc45)CC3)nc(N)c2cc1OC`, for which inhibition was half-maximal at 1.35 µM (IC50).

Molecule `CN(C)CCOc1cc2nc(N3CCN(C(=O)Cc4c[nH]c5ccccc45)CC3)nc(N)c2cc1OCCN(C)C` yielded an IC50 of 2.19 µM.

`COc1cc2nc(N3CCN(C4=CC(=O)c5ccccc5C4=O)CC3)nc(N)c2cc1OC` had an IC50 of 0.53 µM.

Molecule `COC1=CC(=O)C=C(N2CCN(c3nc(N)c4cc(OC)c(OC)cc4n3)CC2)C1=O` yielded an IC50 of 3.01 µM.

Another assay has as its target T2, Trypanothione reductase. As to the kind of experiment: Inhibition of Trypanosoma cruzi recombinant trypanothione reductase by spectrophotometry.
For `COc1cc2nc(N3CCN(C4=CC(=O)c5ccccc5C4=O)CC3)nc(N)c2cc1OC`, the Ki amounted to 7.5 µM.

For another assay, the system named is L6. Briefly: Cytotoxicity against rat L6 cells. It is filed as cell-based.
In the case of `COc1cc2nc(N3CCN(C(=O)[C@@H]4Cc5ccccc5CN4)CC3)nc(N)c2cc1OC`, the IC50 amounted to 14.2 µM.

Consider `COc1cc2nc(N3CCN(C(=O)[C@H]4Cc5ccccc5CN4)CC3)nc(N)c2cc1OC`, for which it took 37.2 µM to reach half-maximal inhibition (IC50).

For the molecule `COc1cc2nc(N3CCN(C(=O)Cc4c[nH]c5ccccc45)CC3)nc(N)c2cc1OC`, half-maximal inhibition (IC50) required 19.6 µM.

`CN(C)CCOc1cc2nc(N3CCN(C(=O)Cc4c[nH]c5ccccc45)CC3)nc(N)c2cc1OCCN(C)C` showed an IC50 greater than 161 µM.

In turn, `COc1cc2nc(N3CCN(C4=CC(=O)c5ccccc5C4=O)CC3)nc(N)c2cc1OC` had an IC50 of 2.76 µM.

In turn, `COC1=CC(=O)C=C(N2CCN(c3nc(N)c4cc(OC)c(OC)cc4n3)CC2)C1=O` registered an IC50 of 52.5 µM.

The next assay addresses Trypanothione reductase (Trypanosoma cruzi) (UniProt P28593). Briefly: Inhibition of Trypanosoma cruzi recombinant trypanothione reductase at 25 uM by spectrophotometry using 100 uM trypanothione disulfide.
Consider `COc1cc2nc(N3CCN(C4=CC(=O)c5ccccc5C4=O)CC3)nc(N)c2cc1OC`, for which the inhibition came to 57%.

For the next assay, the system named is Trypanosoma brucei rhodesiense. Briefly: Antitrypanosomal activity against Trypanosoma brucei rhodesiense bloodstream trypomastigotes. The format is functional, organism-based.
`COc1cc2nc(N3CCN(C(=O)[C@@H]4Cc5ccccc5CN4)CC3)nc(N)c2cc1OC`: half-maximal inhibition (IC50) was put at 1.81 µM.

Turning to `COc1cc2nc(N3CCN(C(=O)[C@H]4Cc5ccccc5CN4)CC3)nc(N)c2cc1OC`, the IC50 was determined as 5.37 µM.

The molecule `COc1cc2nc(N3CCN(C(=O)Cc4c[nH]c5ccccc45)CC3)nc(N)c2cc1OC` displayed an IC50 of 2.21 µM.

In turn, `CN(C)CCOc1cc2nc(N3CCN(C(=O)Cc4c[nH]c5ccccc45)CC3)nc(N)c2cc1OCCN(C)C` came in with an IC50 of 21.8 µM.

Regarding `COc1cc2nc(N3CCN(C4=CC(=O)c5ccccc5C4=O)CC3)nc(N)c2cc1OC`, half-maximal inhibition (IC50) required 0.12 µM.

As for `COC1=CC(=O)C=C(N2CCN(c3nc(N)c4cc(OC)c(OC)cc4n3)CC2)C1=O`, the IC50 came to 1.98 µM.

In a further assay the target is Trypanothione reductase (Trypanosoma cruzi) (UniProt P28593). As to the kind of experiment: Inhibition of Trypanosoma cruzi recombinant trypanothione reductase at 100 uM by spectrophotometry using 50 uM trypanothione disulfide.
Consider `COc1cc2nc(N3CCN(C(=O)[C@@H]4Cc5ccccc5CN4)CC3)nc(N)c2cc1OC`, for which the inhibition amounted to 0%.

Turning to `COc1cc2nc(N3CCN(C(=O)[C@H]4Cc5ccccc5CN4)CC3)nc(N)c2cc1OC`, the inhibition was determined as 0%.

Take `COc1cc2nc(N3CCN(C(=O)Cc4c[nH]c5ccccc45)CC3)nc(N)c2cc1OC`: the inhibition turned out to be 13%.

With `CN(C)CCOc1cc2nc(N3CCN(C(=O)Cc4c[nH]c5ccccc45)CC3)nc(N)c2cc1OCCN(C)C`, the inhibition turned out to be 44%.

In the case of `COC1=CC(=O)C=C(N2CCN(c3nc(N)c4cc(OC)c(OC)cc4n3)CC2)C1=O`, the inhibition came out at 69%.

The test system of the next assay is Trypanosoma cruzi. Briefly: Antitrypanosomal activity against Trypanosoma cruzi amastigotes infected in rat L6 cells. The format is functional, organism-based.
In the case of `COc1cc2nc(N3CCN(C(=O)[C@@H]4Cc5ccccc5CN4)CC3)nc(N)c2cc1OC`, the IC50 came to 14.3 µM.

`COc1cc2nc(N3CCN(C(=O)[C@H]4Cc5ccccc5CN4)CC3)nc(N)c2cc1OC`: the IC50 amounted to 27.6 µM.

`COc1cc2nc(N3CCN(C(=O)Cc4c[nH]c5ccccc45)CC3)nc(N)c2cc1OC` had a half-maximal inhibitory concentration (IC50) of 10.2 µM.

Take `CN(C)CCOc1cc2nc(N3CCN(C(=O)Cc4c[nH]c5ccccc45)CC3)nc(N)c2cc1OCCN(C)C`: the IC50 is greater than 50 µM.

Molecule `COc1cc2nc(N3CCN(C4=CC(=O)c5ccccc5C4=O)CC3)nc(N)c2cc1OC` returned an IC50 of 3.68 µM.

The molecule `COC1=CC(=O)C=C(N2CCN(c3nc(N)c4cc(OC)c(OC)cc4n3)CC2)C1=O` showed an IC50 of 35.6 µM.

The subject of the next assay is Leishmania donovani. Briefly: Antileishmanial activity against Leishmania donovani axenic amastigotes. The format is functional, organism-based.
Take `COc1cc2nc(N3CCN(C(=O)[C@@H]4Cc5ccccc5CN4)CC3)nc(N)c2cc1OC`: the IC50 was greater than 67 µM.

With `COc1cc2nc(N3CCN(C(=O)[C@H]4Cc5ccccc5CN4)CC3)nc(N)c2cc1OC`, the IC50 is greater than 67 µM.

`COc1cc2nc(N3CCN(C(=O)Cc4c[nH]c5ccccc45)CC3)nc(N)c2cc1OC` displayed an IC50 of 42.2 µM.

In turn, `CN(C)CCOc1cc2nc(N3CCN(C(=O)Cc4c[nH]c5ccccc45)CC3)nc(N)c2cc1OCCN(C)C` yielded an IC50 greater than 54 µM.

Regarding `COc1cc2nc(N3CCN(C4=CC(=O)c5ccccc5C4=O)CC3)nc(N)c2cc1OC`, the IC50 stood at 1.78 µM.

As for `COC1=CC(=O)C=C(N2CCN(c3nc(N)c4cc(OC)c(OC)cc4n3)CC2)C1=O`, inhibition was half-maximal at 45.7 µM (IC50).

The target in another assay is Trypanothione reductase (Trypanosoma cruzi) (UniProt P28593). Briefly: Inhibition of Trypanosoma cruzi recombinant trypanothione reductase at 100 uM by spectrophotometry using 100 uM trypanothione disulfide.
With `COc1cc2nc(N3CCN(C(=O)[C@@H]4Cc5ccccc5CN4)CC3)nc(N)c2cc1OC`, the inhibition came out at 0%.

`COc1cc2nc(N3CCN(C(=O)[C@H]4Cc5ccccc5CN4)CC3)nc(N)c2cc1OC`: the inhibition turned out to be 0%.

On to `COc1cc2nc(N3CCN(C(=O)Cc4c[nH]c5ccccc45)CC3)nc(N)c2cc1OC`, for which the inhibition is 23%.

Regarding `CN(C)CCOc1cc2nc(N3CCN(C(=O)Cc4c[nH]c5ccccc45)CC3)nc(N)c2cc1OCCN(C)C`, the inhibition came to 33%.

As for `COC1=CC(=O)C=C(N2CCN(c3nc(N)c4cc(OC)c(OC)cc4n3)CC2)C1=O`, the inhibition worked out at 75%.
